{"source": "patent US20220218827A1", "about": "“DELIVERY OF THERAPEUTIC COMPOUNDS WITH IRON OXIDE NANOPARTICLES” (Memorial Sloan Kettering Cancer Center, priority 2012, published 2022)", "key": {"[1]": {"tested_on": "PC3 tumors", "assay": "Tumor growth in nude mice bearing PC3 tumors", "type": "in vivo", "details": "versus control animals", "method": "Nude, male mice (n=10) bearing PC3 tumors on their flanks were treated on day 0, day 2 and day 6 with 100 μι, either doxorubicin alone or doxorubi tin-loaded Feraheme®, both at a final doxorubicin concentration of 0.28 mM. Changes in tumor size were evaluated with a microcaliper, and at the end of the 8-day study the mice were euthanized, according to the Institutional Animal Care and Use Committee guidelines. • Data Analysis.\nSpecifically, the mice were treated with equal concentrations of the drug on day 0, 2 and 6, and tumor growth was determined with microcalipers. Control animals were treated with 100 μι, of 10% DMSO-containing PBS to match the DMSO content of the free doxorubicin injection, since the drug was dissolved in DMSO and diluted to the desired concentration in PBS. On day 6 and 8, the tumors were measured, and the change in tumor growth was determined by comparing the volume of tumors from treated animals with those of control ones."}, "[2]": {"tested_on": "human prostate adenocarcinoma cells (LNCaP)", "assay": "LNCaP cell viability, Alamar Blue method", "type": "cell-based", "details": "48 h, [Doxorubicin]final=7.5 μM, free or intercalated drug, read-out: reduction in cell viability", "method": "Cell viability and in vivo studies. LNCaP cells were seeded on black-walled, clear bottom 96-well plates at a cell density of 10,000 cells per well, supplemented with 100 iL 10% FBS-containing RPMI medium. […] Controls included cells incubated with unloaded nanoparticles or DMSO, corresponding to the free drug's final solvent concentration. Subsequently, the old medium was aspirated, and cell viability was assessed via the Alamar Blue method (Invitrogen). Briefly, the cells were supplemented with 10%-alamar-blue-containing medium (10% FBS-containing RPMI), followed by 3 h incubation in a humidified incubator (37° C., 5% CO2) and recording of fluorescence emission (λ ? =565 nm) with the SpectraMax M5 plate reader. […] Experiments were performed in triplicate unless otherwise stated, with the results are presented as mean±SEM.\nCell viability and in vivo studies. […] Subsequently, the old medium was aspirated, and cell viability was assessed via the Alamar Blue method (Invitrogen). Briefly, the cells were supplemented with 10%-alamar-blue-containing medium (10% FBS-containing RPMI), followed by 3 h incubation in a humidified incubator (37° C., 5% CO2) and recording of fluorescence emission ? ran, λειλ=585 nm) with the SpectraMax M5 plate reader."}}, "data": [{"molecule": "COc1cccc2c1C(=O)c1c(O)c3c(c(O)c1C2=O)C[C@@](O)(C(=O)CO)C[C@@H]3O[C@H]1C[C@H](N)[C@H](O)[C@H](C)O1", "note": "[doxorubicin]", "values": [{"measurement": "suppression of tumor growth after three injections", "setting": "[1]; iv day 0, 2 and 6, measured day 8, 0.28 mM doxorubicin", "value": 34, "unit": "%"}, {"measurement": "tumor regression after two injections", "setting": "[1]; iv day 0 and 2, measured day 6, 100 μL of 0.28 mM doxorubicin", "value": "some tumor growth"}, {"measurement": "cytotoxicity at […]", "setting": "[2]", "value": 60, "unit": "%"}]}]}
